Data reported in PMC9387934, “Randomized single oral dose phase 1 study of safety, tolerability, and pharmacokinetics of Iminosugar UV-4 Hydrochloride (UV-4B) in healthy subjects” (PLoS Neglected Tropical Diseases, 2022).
Like-named read-outs stand apart in the source and are kept apart here.

Tests used:
[1] = Phase 1a single ascending dose study: UV-4 plasma concentrations and PK parameters (LC-MS/MS, noncompartmental); type: in vivo; conditions: for Tmax / half-life / AUC(0-inf) / Cmax: both sexes, human, plasma; for AUC(0-inf): read-out: AUC(0-inf); for Cmax: read-out: Cmax
Protocol: UV-4 ((2R,3R,4R,5S)-2-(hydroxymethyl)-1-(9-methoxynonyl)piperidine-3,4,5-triol, also called N-(9’-methoxynonyl)-1-deoxynojirimycin, or MON-DNJ) hydrochloride was evaluated in a first-in-human, randomized, single-center, double-blind, placebo-controlled, parallel group, single ascending dose Phase 1a clinical trial in healthy subjects (Figs 1 and 2, ClinicalTrials.gov Identifier NCT02061358 https://clinicaltrials.gov/ct2/show/NCT02061358). The primary objective was to determine the safety and tolerability of a single-ascending oral dose of UV-4 hydrochloride (Fig 3). […] The secondary objective was to determine PK parameters describing absorption and elimination of UV-4 following a single oral dose of UV-4 hydrochloride. Eight cohorts of eight subjects each were enrolled and completed the study. In each cohort, six subjects received UV-4 as the hydrochloride; two received placebo. Subjects were screened against study eligibility criteria up to four weeks (Days -28 to -2) before admission to the clinic (Day -1). Dosing was performed on an inpatient basis. Subjects remained in clinic for 48 hours post-dosing for PK sample collection and safety assessments and were discharged from the clinic on Day 3. Subjects returned to the clinic on Day 4 for additional safety assessments, then again on Day 9 ± 1 for a final follow-up visit.
Eligible subjects were healthy males and females, age 18–45 years, with a body mass index between 18 and 30 kg/m^2 inclusive and a minimum body weight of 60 kg. Subjects were considered healthy based on medical history, physical exam, vital signs, 12-lead electrocardiogram (ECG), clinical laboratory tests (hematology, blood chemistry, urinalysis), viral serology, and drug and alcohol screening. Male and female subjects of childbearing potential were required to use adequate contraception over the course of the clinical trial. […] Only subjects who met all inclusion and none of the exclusion criteria prior to administration of the investigational product were enrolled into the study (no exemptions were granted). A total of 64 subjects were enrolled (eight cohorts of eight subjects each). In each of the eight cohorts, six subjects were randomized to receive a single dose of UV-4 (3 to 1000 mg, depending on cohort) as the hydrochloride salt, and two subjects to receive placebo. Cohort size of six active subjects was based on analysis that increasing cohort size above six in a first-in-human study gains little in the ability to observe a drug induced event, and results in observing more events that are not related to study drug. Two of the eight subjects in each cohort (sentinel subjects; one active and one placebo) received their doses at least 48 h before the remaining subjects in each cohort.
On each day of use, bulk drug substance (UV-4B for solubilization, SAI Life Sciences Ltd. Telangana, India) was removed from a single-use container, weighed at the study center, and solubilized in 20 mL sterile water for injection (SWFI) (Hospira Inc. Illinois, United States of America). Weight of solid drug substance was converted to dose of UV-4 by applying purity and salt correction factor per pharmacy manual when preparing the dosing solution. UV-4B solution was administered orally with 10 mL of taste-masking agent, OraSweet-SF (Paddock Laboratories LLC, Minneapolis, United States of America) in a total volume of 30 mL, to assist in maintaining study blinding. Placebo was SWFI (20 mL) plus OraSweet-SF (10 mL). Concentrations and doses were calculated and expressed as the active free base form, UV-4. This methodology is consistent with USP<1121>, which recommends that the strength of a drug product or preparation is expressed in terms of the active moiety. Following consumption of active or placebo solution, the dosing container was rinsed with 50 mL of tap water also consumed by subjects. […]

[2] = BID or TID dosing after 14 days in mouse or dog; ref Investigator’s Brochure (IB); cited from earlier work
[3] = po, 3 mg, 3 mg single oral dose, Ar Mean

In the case of COCCCCCCCCCN1C[C@H](O)[C@@H](O)[C@H](O)[C@H]1CO [UV-4, N-(9’-methoxynonyl)-1-deoxynojirimycin], the “Time over which UV-4 plasma concentrations were quantifiable” value ([1]; 3 mg, 5 of 6 subjects) is reported as 24 h, the “Time over which UV-4 plasma concentrations were quantifiable” value ([1]; 3 mg, one subject) is reported as 36 h and the Tmax ([1]; oral, 3 to 1000 mg UV-4 dose range, read-out: Median time to reach maximum plasma concentration (tmax), range across dose groups) is reported as 0.5 to 1 h. It also gave a half-life ([1]; oral, Phase 1a study, 3 to 1000 mg, read-out: Mean half-life, range across dose groups) of 8.14 to 12 h, an AUC(0-inf) [1, 3] of 95.6 ng·h/mL and a Cmax [1, 3] of 22.4 ng/mL. The half-life ([1]; po, 3 mg, 3 mg single oral dose, Ar Mean, read-out: t1/2 (converted)) was 10.7 h, the AUC(0-inf) ([1]; po, 3 mg, 3 mg single oral dose, Arithmetic Mean) was 95.6 ng·h/mL and the Cmax ([1]; po, 3 mg, 3 mg single oral dose, Geo Mean) was 22.1 ng/mL. The half-life ([1]; po, 3 mg, 3 mg single oral dose, Geo Mean, read-out: t1/2 (converted)) was 10.3 h, the AUC(0-inf) ([1]; po, 3 mg, 3 mg single oral dose, Geometric Mean) was 94.6 ng·h/mL and the Tmax ([1]; po, 3 mg, 3 mg single oral dose, median, read-out: tmax) was 0.5 h. The Cmax ([1]; po, 10 mg, 10 mg single oral dose, Ar Mean) was 84.6 ng/mL, the half-life ([1]; po, 10 mg, 10 mg single oral dose, Ar Mean, read-out: t1/2 (converted)) was 12 h and the AUC(0-inf) ([1]; po, 10 mg, 10 mg single oral dose, Arithmetic Mean) was 431 ng·h/mL. The Cmax ([1]; po, 10 mg, 10 mg single oral dose, Geo Mean) was 82.6 ng/mL, the half-life ([1]; po, 10 mg, 10 mg single oral dose, Geo Mean, read-out: t1/2 (converted)) was 11.9 h and the AUC(0-inf) ([1]; po, 10 mg, 10 mg single oral dose, Geometric Mean) was 420 ng·h/mL. It also gave a Tmax ([1]; po, 10 mg, 10 mg single oral dose, median, read-out: tmax) of 1 h, a Cmax ([1]; po, 30 mg, 30 mg single oral dose, Ar Mean) of 292 ng/mL and a half-life ([1]; po, 30 mg, 30 mg single oral dose, Ar Mean, read-out: t1/2 (converted)) of 10 h. It also gave an AUC(0-inf) ([1]; po, 30 mg, 30 mg single oral dose, Arithmetic Mean) of 1260 ng·h/mL, a Cmax ([1]; po, 30 mg, 30 mg single oral dose, Geo Mean) of 289 ng/mL and a half-life ([1]; po, 30 mg, 30 mg single oral dose, Geo Mean, read-out: t1/2 (converted)) of 10 h. For the same compound, the AUC(0-inf) ([1]; po, 30 mg, 30 mg single oral dose, Geometric Mean) was 1260 ng·h/mL, the Tmax ([1]; po, 30 mg, 30 mg single oral dose, median, read-out: tmax) was 0.5 h and the Cmax ([1]; po, 90 mg, 90 mg single oral dose, Ar Mean) was 946 ng/mL. The half-life ([1]; po, 90 mg, 90 mg single oral dose, Ar Mean, read-out: t1/2 (converted)) was 10.4 h, the AUC(0-inf) ([1]; po, 90 mg, 90 mg single oral dose, Arithmetic Mean) was 3730 ng·h/mL and the Cmax ([1]; po, 90 mg, 90 mg single oral dose, Geo Mean) was 900 ng/mL. It also gave a half-life ([1]; po, 90 mg, 90 mg single oral dose, Geo Mean, read-out: t1/2 (converted)) of 10.2 h, an AUC(0-inf) ([1]; po, 90 mg, 90 mg single oral dose, Geometric Mean) of 3700 ng·h/mL and a Tmax ([1]; po, 90 mg, 90 mg single oral dose, median, read-out: tmax) of 0.5 h. For the same compound, the Cmax ([1]; po, 180 mg, 180 mg single oral dose, Ar Mean) was 2150 ng/mL, the half-life ([1]; po, 180 mg, 180 mg single oral dose, Ar Mean, read-out: t1/2 (converted)) was 8.7 h and the AUC(0-inf) ([1]; po, 180 mg, 180 mg single oral dose, Arithmetic Mean) was 7110 ng·h/mL. The Cmax ([1]; po, 180 mg, 180 mg single oral dose, Geo Mean) was 2060 ng/mL, the half-life ([1]; po, 180 mg, 180 mg single oral dose, Geo Mean, read-out: t1/2 (converted)) was 8.7 h and the AUC(0-inf) ([1]; po, 180 mg, 180 mg single oral dose, Geometric Mean) was 7090 ng·h/mL. It also gave a Tmax ([1]; po, 180 mg, 180 mg single oral dose, median, read-out: tmax) of 0.8 h, a Cmax ([1]; po, 360 mg, 360 mg single oral dose, Ar Mean) of 4570 ng/mL and a half-life ([1]; po, 360 mg, 360 mg single oral dose, Ar Mean, read-out: t1/2 (converted)) of 8.1 h. The AUC(0-inf) ([1]; po, 360 mg, 360 mg single oral dose, Arithmetic Mean) was 13800 ng·h/mL, the Cmax ([1]; po, 360 mg, 360 mg single oral dose, Geo Mean) was 4490 ng/mL and the half-life ([1]; po, 360 mg, 360 mg single oral dose, Geo Mean, read-out: t1/2 (converted)) was 8.1 h. It also gave an AUC(0-inf) ([1]; po, 360 mg, 360 mg single oral dose, Geometric Mean) of 13700 ng·h/mL, a Tmax ([1]; po, 360 mg, 360 mg single oral dose, median, read-out: tmax) of 0.5 h and a Cmax ([1]; po, 720 mg, 720 mg single oral dose, Ar Mean) of 9920 ng/mL. The half-life ([1]; po, 720 mg, 720 mg single oral dose, Ar Mean, read-out: t1/2 (converted)) was 8.2 h, the AUC(0-inf) ([1]; po, 720 mg, 720 mg single oral dose, Arithmetic Mean) was 32900 ng·h/mL and the Cmax ([1]; po, 720 mg, 720 mg single oral dose, Geo Mean) was 9760 ng/mL. The half-life ([1]; po, 720 mg, 720 mg single oral dose, Geo Mean, read-out: t1/2 (converted)) was 8.2 h, the AUC(0-inf) ([1]; po, 720 mg, 720 mg single oral dose, Geometric Mean) was 32800 ng·h/mL and the Tmax ([1]; po, 720 mg, 720 mg single oral dose, median, read-out: tmax) was 0.8 h. The Cmax ([1]; po, 1000 mg, 1000 mg single oral dose, Ar Mean) was 13100 ng/mL, the half-life ([1]; po, 1000 mg, 1000 mg single oral dose, Ar Mean, read-out: t1/2 (converted)) was 8.8 h and the AUC(0-inf) ([1]; po, 1000 mg, 1000 mg single oral dose, Arithmetic Mean) was 43100 ng·h/mL. It also gave a Cmax ([1]; po, 1000 mg, 1000 mg single oral dose, Geo Mean) of 13000 ng/mL, a half-life ([1]; po, 1000 mg, 1000 mg single oral dose, Geo Mean, read-out: t1/2 (converted)) of 8.6 h and an AUC(0-inf) ([1]; po, 1000 mg, 1000 mg single oral dose, Geometric Mean) of 42800 ng·h/mL. For the same compound, the Tmax ([1]; po, 1000 mg, 1000 mg single oral dose, median, read-out: tmax) was 1 h, the “Time over which UV-4 plasma concentrations were quantifiable” value ([1]; doses of 10 mg or higher, entire collection interval) was 48 h and the Accumulation [2] was “did not accumulate”.
